Consider 16 compounds from patent publication US11077115B2, “Rorgamma modulators and uses thereof” (Genfit, priority 2017, dated 2021).

Test [1] has as its target T1, RORγt ligand-binding domain (RORγt-LBD) (Homo sapiens, UniProt P51449).
T1 construct: 20 nM recombinantly expressed RORγ-LBD fused to GST
T1 sequence (P51449 269-508 limits assumed): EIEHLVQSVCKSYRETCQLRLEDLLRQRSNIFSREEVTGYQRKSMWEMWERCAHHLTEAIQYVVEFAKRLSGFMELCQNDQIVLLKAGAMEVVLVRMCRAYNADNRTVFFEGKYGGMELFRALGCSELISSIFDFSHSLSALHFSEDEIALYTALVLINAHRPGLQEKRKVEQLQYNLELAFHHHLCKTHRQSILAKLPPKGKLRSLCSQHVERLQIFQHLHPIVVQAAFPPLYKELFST
Kind of test: Time-resolved FRET (TR-FRET) RORγt coactivator assay (RIP140 peptide displacement). The class given is biochemical. As to conditions: ligand-dependent coactivator-RORγt binding. The method, boiled down: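 GST-tagged RORγt-LBD (20 nM) with 30 nM biotinylated RIP140 peptide, 1 nM streptavidin-terbium and 20 nM d2-anti-GST in CHAPS buffer with DTT, EDTA, BSA; 1% DMSO. Compounds 0.3 nM–30 μM, 2 h dark, room temperature. Coactivator displacement lowers TR-FRET signal; IC50 (μM) and Emax (%) derived.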

The target of test [2] is T2, human RORγt (Homo sapiens, UniProt P51449).
T2 sequence (P51449 1-497 isoform P51449-2): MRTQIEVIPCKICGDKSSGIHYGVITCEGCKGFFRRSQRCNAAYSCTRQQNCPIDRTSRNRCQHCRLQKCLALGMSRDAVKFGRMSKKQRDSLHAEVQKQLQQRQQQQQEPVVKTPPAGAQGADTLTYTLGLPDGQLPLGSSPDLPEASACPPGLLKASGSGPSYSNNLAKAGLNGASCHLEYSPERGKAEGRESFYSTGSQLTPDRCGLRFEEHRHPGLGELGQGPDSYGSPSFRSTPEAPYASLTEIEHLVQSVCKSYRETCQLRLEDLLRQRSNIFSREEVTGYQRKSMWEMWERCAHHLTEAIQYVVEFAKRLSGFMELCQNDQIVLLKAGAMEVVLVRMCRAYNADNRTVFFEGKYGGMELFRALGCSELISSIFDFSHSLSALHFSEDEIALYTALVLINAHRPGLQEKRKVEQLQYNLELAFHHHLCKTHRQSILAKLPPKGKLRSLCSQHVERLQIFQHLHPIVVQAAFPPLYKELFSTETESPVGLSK
Kind of test: IL-17 secretion from EL4 murine lymphoma overexpressing human RORγt. The class given is cell-based. Set-up: V5-His (named only through the vector pcDNA3.1D/V5-His-TOPO); expressed in transfected cells. As to conditions: IL-17 secretion inhibition in human RORγt-transfected EL4 Tcells, PMA/ionomycin stimulation. As to the method: Murine EL-4 lymphoma cell line overexpressing human RORγt was used in this functional assay to assess compound ability to inhibit IL-17 cytokine secretion.
EL-4 cells are maintained in a standard culture medium RPMI supplemented with 10% fetal calf serum, 1% sodium pyruvate, 1% essential amino acids and 1% antibiotics at 37° C. in a humidified atmosphere of 5% CO2 and 95% air. Culture medium was changed every 2 days. EL4 cells were transfected with a plasmid encoding hRORγt (sequence identical to published sequence NM 001001523). […] Briefly, 1 μg of DNA/1 million cells was served to transfect EL-4 cells. Cell/DNA suspension was transferred into certified cuvette and the electroporation of RORγt plasmid was carried out using appropriate Nucleofector® program.
Cells were seeded in 96 well plates at a density of 150000 cells/well then treated with compounds of this invention at indicated concentrations and incubated for 24 hours at 37° C. in a humidified atmosphere of 5% CO2 and 95% air. EL-4 cells were pretreated with test compounds (RORγ modulators) and stimulated with PMA (10 ng/mL) and ionomycin (1 μM final concentration) in the presence of test compound concentrations for additional 24 h at 37° C. in a humidified atmosphere of 5% CO2 and 95% air. Subsequently, supernatants were collected (after centrifugation at 300 g for 10 minutes) to determine the concentrations of IL-17 by HTRF (CisBio, France) or ELISA (R&D Systems Europe) according to the manufacturer's protocols.

The target of test [3] is T2, human RORγt. The experiment in a line: RORE Luciferase/RORγt transactivation assay (IL-17 promoter luciferase reporter in COS-7 cells). The class given is cell-based. Set-up: V5-His (named only through the vector pcDNA3.1D/V5-His-TOPO); expressed in transfected cells; host or cells: COS-7 (monkey kidney). As to conditions: RORγt activity inhibition, luciferase activity in transfected COS-7 cells, 20 h. The method, boiled down:
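COS-7 cells co-transfected with human RORγt and luciferase reporter driven by 4.3 kb IL-17 promoter with CNS enhancer, seeded in serum-free, phenol red-free DMEM. Compounds added at 0.3% DMSO final; luciferase read by Steady-Glo luminescence. IC50 (μM) and Emax (%) reported.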

On to `Cc1ccc(C(NC(=O)Cc2ccc(N3CCS(=O)(=O)CC3)cc2C)c2ccc(C)o2)c(C)c1` (stereo not drawn) [Cpd. 19, N-[(2,4-dimethylphenyl)(5-methylfuran-2-yl)methyl]-2-[4-(1,1-dioxo-1-thiomorpholin-4-yl)-2-methylphenyl]acetamide], for which the figures for the IC50 (in test [1]; at human RORγt [2]; against human RORγt [3]) were less than 1000 nM, less than 1000 nM and less than 100 nM, respectively.
Consider `Cc1ccc(C(NC(=O)Cc2cnc(N3CCS(=O)(=O)CC3)nc2)c2ccc(C)o2)c(N2CCCCC2)c1` (stereo not drawn) [Cpd. 20, 2-[2-(1,1-dioxo-1-thiomorpholin-4-yl)pyrimidin-5-yl]-N-{[4-methyl-2-(piperidin-1-yl)phenyl](5-methylfuran-2-yl)methyl}acetamide], for which the IC50 in test [1] is less than 1000 nM; at human RORγt [2] it was less than 1000 nM; against human RORγt [3] it was less than 100 nM.
As for `Cc1ccc(C(NC(=O)Cc2ccc(N3CCS(=O)(=O)CC3)cc2C)c2ccc(C)o2)c(Br)c1` (stereo not drawn) [Cpd. 21, N-[(2-bromo-4-methylphenyl)(5-methylfuran-2-yl)methyl]-2-[4-(1,1-dioxo-1-thiomorpholin-4-yl)-2-methylphenyl]acetamide], the IC50 in test [1] is less than 1000 nM; at human RORγt [2], 100 to 1000 nM; against human RORγt [3] it was less than 100 nM.
For `Cc1ccc(C(NC(=O)Cc2ccc(N3CCS(=O)(=O)CC3)cc2)c2ccccc2)c(N2CC3CC3C2)c1` (stereo not drawn) [Cpd. 22, N-[(2-{3-azabicyclo[3.1.0]hexan-3-yl}-4-methylphenyl)(phenyl)methyl]-2-[4-(1,1-dioxo-1-thiomorpholin-4-yl)phenyl]acetamide] the same measures were less than 1000 nM, 100 to 1000 nM and less than 100 nM.
With `Cc1ccc(C(NC(=O)Cc2ccc(N3CCS(=O)(=O)CC3)c(C)c2)c2ccccc2)c(N2CC3CC3C2)c1` (stereo not drawn) [Cpd. 23, N-[(2-{3-azabicyclo[3.1.0]hexan-3-yl}-4-methylphenyl)(phenyl)methyl]-2-[4-(1,1-dioxo-1-thiomorpholin-4-yl)-3-methylphenyl]acetamide], the 50% inhibitory concentration (IC50) is 100 to 1000 nM in test [1], 100 to 1000 nM on human RORγt [2] and less than 100 nM on human RORγt [3].
`Cc1ccc(C(NC(=O)Cc2ccc(N3CCOCC3)nc2)c2ccc(C)o2)c(N2CCCCC2)c1` (stereo not drawn) [Cpd. 25, N-{[4-methyl-2-(piperidin-1-yl)phenyl](5-methylfuran-2-yl)methyl}-2-[6-(morpholin-4-yl)pyridin-3-yl]acetamide]: the figures for the IC50 (in test [1]; against human RORγt [2]; on human RORγt [3]) were less than 1000 nM, 100 to 1000 nM and 100 to 1000 nM, respectively.
In the case of `Cc1ccc(C(NC(=O)Cc2ccc(N3CCS(=O)(=O)CC3)nc2)c2ccc(C)o2)c(N2CCCCC2)c1` (stereo not drawn) [Cpd. 27, 2-[6-(1,1-dioxo-1-thiomorpholin-4-yl)pyridin-3-yl]-N-{[4-methyl-2-(piperidin-1-yl)phenyl](5-methylfuran-2-yl)methyl}acetamide], the IC50 in test [1] is less than 1000 nM; on human RORγt [2], less than 1000 nM; against human RORγt [3] it was less than 100 nM.
As for `Cc1ccc(C(NC(=O)Cc2cc(N3CCS(=O)(=O)CC3)ccc2C)c2ccc(C)o2)c(N2CC3CC3C2)c1` (stereo not drawn) [Cpd. 28, N-[(2-{3-azabicyclo[3.1.0]hexan-3-yl}-4-methylphenyl)(5-methylfuran-2-yl)methyl]-2-[5-(1,1-dioxo-1-thiomorpholin-4-yl)-2-methylphenyl]acetamide], the IC50 in test [1] was less than 1000 nM; against human RORγt [2], 100 to 1000 nM; against human RORγt [3], 100 to 1000 nM.
As to `Cc1ccc(C(NC(=O)C2(c3ccc(N4CCS(=O)(=O)CC4)cc3)CC2)c2ccc(C)o2)c(C)c1` (stereo not drawn) [Cpd. 31, N-[(2,4-dimethylphenyl)(5-methylfuran-2-yl)methyl]-1-[4-(1,1-dioxo-1-thiomorpholin-4-yl)phenyl]cyclopropane-1-carboxamide], the IC50 in test [1] is less than 1000 nM; against human RORγt [2], less than 1000 nM; at human RORγt [3] it was less than 100 nM.
On to `Cc1ccc(C(NC(=O)C2(c3ccc(N4CCS(=O)(=O)CC4)cc3)CC2)c2ccc(C)o2)c(N2CCCCC2)c1` (stereo not drawn) [Cpd. 32, 1-[4-(1,1-dioxo-1-thiomorpholin-4-yl)phenyl]-N-{[4-methyl-2-(piperidin-1-yl)phenyl](5-methylfuran-2-yl)methyl}cyclopropane-1-carboxamide], for which the IC50 in test [1] is 100 to 1000 nM; against human RORγt [2], less than 1000 nM; against human RORγt [3], less than 100 nM.
For `Cc1ccc(C(NC(=O)Cc2cnc(N3CCS(=O)(=O)CC3)nc2C)c2ccc(C)o2)c(N2CCCCC2)c1` (stereo not drawn) [Cpd. 38, 2-[2-(1,1-dioxo-1-thiomorpholin-4-yl)-4-methylpyrimidin-5-yl]-N-{[4-methyl-2-(piperidin-1-yl)phenyl](5-methylfuran-2-yl)methyl}acetamide] the same measures were less than 1000 nM, less than 1000 nM and less than 100 nM.
Regarding `Cc1ccc(C(NC(=O)Cc2ccc(O)c(N3CCS(=O)(=O)CC3)c2)c2ccc(C)o2)c(N2CCCCC2)c1` (stereo not drawn) [Cpd. 39, 2-[3-(1,1-dioxo-1-thiomorpholin-4-yl)-4-hydroxyphenyl]-N-{[4-methyl-2-(piperidin-1-yl)phenyl](5-methylfuran-2-yl)methyl}acetamide], the IC50 was less than 1000 nM in test [1], less than 1000 nM on human RORγt [2] and less than 100 nM at human RORγt [3].
Turning to `COc1ccc(C(NC(=O)C2(c3ccc(N4CCS(=O)(=O)CC4)cc3)CC2)c2ccc(C)o2)c(N2CCCCCC2)c1` (stereo not drawn) [Cpd. 46, N-{[2-(azepan-1-yl)-4-methoxyphenyl](5-methylfuran-2-yl)methyl}-1-[4-(1,1-dioxo-1-thiomorpholin-4-yl)phenyl]cyclopropane-1-carboxamide], the figures for the IC50 (in test [1]; at human RORγt [2]; against human RORγt [3]) were 100 to 1000 nM, less than 1000 nM and less than 100 nM, respectively.
For `Cc1ccc(C(NC(=O)C2(c3cnc(N4CCS(=O)(=O)CC4)nc3)CC2)c2ccc(C)o2)c(C)c1` (stereo not drawn) [Cpd. 48, N-[(2,4-dimethylphenyl)(5-methylfuran-2-yl)methyl]-1-[2-(1,1-dioxo-1-thiomorpholin-4-yl)pyrimidin-5-yl]cyclopropane-1-carboxamide] the same measures were less than 1000 nM, less than 1000 nM and less than 100 nM.
For `Cc1ccc(C(NC(=O)C2(c3cnc(N4CCS(=O)(=O)CC4)nc3)CC2)c2ccc(C)o2)c(Cl)c1` (stereo not drawn) [Cpd. 52, N-[(2-chloro-4-methylphenyl)(5-methylfuran-2-yl)methyl]-1-[2-(1,1-dioxo-1-thiomorpholin-4-yl)pyrimidin-5-yl]cyclopropane-1-carboxamide], the IC50 in test [1] is less than 1000 nM; at human RORγt [2] it was 100 to 1000 nM; on human RORγt [3], 1000 to 10000 nM.
`Cc1ccc(C(NC(=O)C2(c3cnc(N4CCS(=O)(=O)CC4)nc3)CC2)c2ccc(Cl)cc2C)o1` (stereo not drawn) [Cpd. 53, N-[(4-chloro-2-methylphenyl)(5-methylfuran-2-yl)methyl]-1-[2-(1,1-dioxo-1-thiomorpholin-4-yl)pyrimidin-5-yl]cyclopropane-1-carboxamide]: the IC50 was less than 1000 nM in test [1], 100 to 1000 nM against human RORγt [2] and less than 100 nM on human RORγt [3].
